The values that follow come from BindingDB's records for doi:10.7270/Q2736PBV (Broad Institute, 2009).

The target of this assay is T1, Streptokinase A (Streptococcus pyogenes serotype M1, UniProt P10520).
T1 sequence (P10520 whole entry): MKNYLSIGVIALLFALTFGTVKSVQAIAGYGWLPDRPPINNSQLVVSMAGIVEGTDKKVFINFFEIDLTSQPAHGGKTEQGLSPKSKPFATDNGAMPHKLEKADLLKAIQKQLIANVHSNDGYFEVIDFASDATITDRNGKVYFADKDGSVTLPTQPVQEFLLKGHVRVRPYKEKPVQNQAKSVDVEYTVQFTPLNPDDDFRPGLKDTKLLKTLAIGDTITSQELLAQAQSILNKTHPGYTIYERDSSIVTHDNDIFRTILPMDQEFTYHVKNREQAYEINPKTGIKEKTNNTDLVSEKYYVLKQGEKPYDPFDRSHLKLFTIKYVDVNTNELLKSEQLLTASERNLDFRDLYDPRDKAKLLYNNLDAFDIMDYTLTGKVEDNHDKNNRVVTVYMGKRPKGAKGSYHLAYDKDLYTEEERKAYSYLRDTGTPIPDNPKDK
The assay can be described thus: S. pyogenes streptokinase expression inhibitors, potency, dose response, plasminogen activation absorbance, OD405 (AID 1914).
Regarding `CC1(C)CC(=O)C(C2C3=C(CC(C)(C)CC3=O)Oc3c(Br)cc(Br)cc32)C(=O)C1` (stereo not drawn) [5,7-bis(bromanyl)-9-(4,4-dimethyl-2-oxidanyl-6-oxidanylidene-cyclohexen-1-yl)-3,3-dimethyl-4,9-dihydro-2H-xanthen-1-one], the EC50 is 24.8 µM.
As for `CC(N=Nc1nc2ccccc2[nH]1)c1ccc2c(c1)OCO2` (stereo not drawn) [SMR000354227], the EC50 was greater than 150 µM.
Take `CC(=O)c1cccc2c1NC(=C1Nc3ccccc3C1=O)C2=O` [(2E)-7-ethanoyl-2-(3-oxidanylidene-1H-indol-2-ylidene)-1H-indol-3-one]: the EC50 stood at 116 µM.
In turn, `CCOC(=O)C1=C(Cc2ccc(CC)cc2)C(=O)c2ccccc2C1=O` [(2E,3Z)-2-[ethoxy(hydroxy)methylidene]-3-[(4-ethylphenyl)methylidene]naphthalene-1,4-dione] showed an EC50 greater than 150 µM.
The compound `Cc1cc(N=NCc2ccc(O)c(C)c2O)nc(-c2ccccc2O)n1` [(4E)-3-hydroxy-2-methyl-4-[[[(2Z)-6-methyl-2-(6-oxo-1-cyclohexa-2,4-dienylidene)-1H-pyrimidin-4-yl]hydrazo]methylidene]-1-cyclohexa-2,5-dienone] registered an EC50 greater than 150 µM.
Under `CC(N=Nc1ccc(Cl)c(Cl)c1)c1ccc(-n2ccnc2)cc1` (stereo not drawn) stands 17.2 µM; under `COc1ccc(C2=N/C(=C\c3c(C)[nH]c4ccccc34)C(=O)O2)cc1` [(4Z)-2-(4-methoxyphenyl)-4-[(2-methyl-1H-indol-3-yl)methylidene]-1,3-oxazol-5-one], greater than 150 µM; under `CCCc1sc(N=NCc2ccccn2)nc1-c1ccc(F)cc1` [SMR000116776], greater than 150 µM.
Under `COc1cc(CN=Nc2nc(Nc3ccc(C)cc3)nc(-n3nc(C)cc3C)n2)cc(OC)c1OC` stands greater than 150 µM; under `Oc1ccc(Br)cc1CN=Nc1nc(N2CCCCC2)nc(N2CCOCC2)n1` [MLS000713264], 33.6 µM; under `CN1C(=O)C(=NNc2nc(-c3ccccc3)cs2)c2ccccc21` [SMR000243133], 7.09 µM.
The compound `N#CC(C(=O)c1ccc([N+](=O)[O-])o1)c1nc2ccccc2[nH]1` (stereo not drawn) came in with an EC50 of 27.6 µM.
On to `CCc1ccc2nc(N3C(=O)C(=O)C(C(=O)c4ccco4)C3c3cccs3)sc2c1` (stereo not drawn) [1-(6-ethyl-1,3-benzothiazol-2-yl)-3-(furan-2-ylcarbonyl)-4-oxidanyl-2-thiophen-2-yl-2H-pyrrol-5-one], for which the EC50 is greater than 150 µM.
`COc1ccc2nc(-n3c(O)c[nH]c3=S)sc2c1` [3-(6-methoxy-1,3-benzothiazol-2-yl)-2-sulfanylidene-imidazolidin-4-one]: the EC50 is greater than 150 µM.
Regarding `O=C1C(=NNC(=S)Nc2ccccc2F)c2ccccc2N1Cc1ccc(F)cc1`, the EC50 came to 0.607 µM.
For the compound `O=C(Nc1nnc(-c2ccc(Br)cc2)o1)c1cccc(-n2c(O)ccc2O)c1` [MLS001235111], the EC50 was greater than 150 µM.
As for `CC1CC(C)(C)N2C(=O)/C(=N\NC(N)=S)c3cccc1c32` (stereo not drawn) [SMR000414933], the EC50 was greater than 150 µM.
The same measure for `CCOC(=O)c1sc(N2C(=O)C(=O)C(C(=O)c3ccco3)C2c2cccc(Cl)c2)nc1C` (stereo not drawn): greater than 150 µM; for `COc1cccc(N=NCc2cccc(Br)c2O)c1` [(6E)-2-bromo-6-[[2-(3-methoxyphenyl)hydrazinyl]methylidene]cyclohexa-2,4-dien-1-one]: 19.6 µM; for `O=[N+]([O-])c1cccc(CN=Nc2nc(N3CCCCC3)nc(N3CCCCC3)n2)c1` [N-[(3-nitrophenyl)methylideneamino]-4,6-bis(1-piperidinyl)-1,3,5-triazin-2-amine]: 39.4 µM.
The same measure for `CCOc1cc(CN=Nc2cccc(C(=O)O)c2)ccc1OC(=O)c1ccccc1` [3-[(N''E)-N''-(4-benzoyloxy-3-ethoxy-benzylidene)hydrazino]benzoic acid]: greater than 150 µM; for `CC(NNC(=O)c1ccccc1O)=C1C(=O)c2ccccc2C1=O` [MLS000523164]: greater than 150 µM.
Consider `COC1=CC([N+](=O)[O-])=CC(/C=N/NC(=O)C(C)Nc2cccc(C)c2)C1=O` (stereo not drawn) [N'-[(1E)-(2-hydroxy-3-methoxy-5-nitrophenyl)methylene]-2-[(3-methylphenyl)amino]propanohydrazide], for which the EC50 was greater than 150 µM.
On to `COc1cccc(CN=Nc2cc(C)nc(-c3ccccc3O)n2)c1O` [SMR000274167], for which the EC50 was greater than 150 µM.
Take `CCN1C(=O)C(C=NN=Cc2ccccc2)c2ccc(C3=NNC(=O)CC3)cc21` (stereo not drawn) [benzaldehyde {[1-ethyl-2-oxo-6-(6-oxo-1,4,5,6-tetrahydro-3-pyridazinyl)-1,2-dihydro-3H-indol-3-ylidene]methyl}hydrazone]: the EC50 was greater than 150 µM.
Compound `Cc1ccc(-n2c(=O)c3[nH][nH]n(CC(=O)N4N=C(c5cccc6ccccc56)CC4c4ccccc4)c=3c2=O)cc1` (stereo not drawn) [MLS000546672] registered an EC50 of 35.7 µM. This counts as double-digit micromolar.
The same measure for `O=C(N/N=C/C1C=C([N+](=O)[O-])C=CC1=O)c1cccc(NC(=O)c2cccc(Cl)c2)c1` (stereo not drawn): greater than 150 µM; for `O=C1NC(=O)N(Cc2ccccc2)C(=O)C1=CNNC(=O)c1ccccc1` [N'-[(E)-[2,4,6-tris(oxidanylidene)-1-(phenylmethyl)-1,3-diazinan-5-ylidene]methyl]benzohydrazide]: greater than 150 µM; for `CC(N=Nc1nc2ccccc2s1)c1ccc2c(c1)OCO2` (stereo not drawn): greater than 150 µM.
Under `N#CC1C(=N)OC2=C(CCc3ccccc32)C1c1ccccc1Cl` (stereo not drawn) [MLS000586146] stands 11.9 µM; under `Cc1cc(Br)c(OCc2ccc(C(=O)NN=C3CC4CCC=C34)cc2)c(Br)c1` (stereo not drawn) [MLS000335385], greater than 150 µM; under `CCc1ccc2c(c1)=C(NNc1nc(-c3ccccc3)cs1)C(=O)N=2` [5-ethyl-1H-indole-2,3-dione 3-[(4-phenyl-1,3-thiazol-2(3H)-ylidene)hydrazone]], greater than 150 µM.
The same measure for `CSc1cccc(-c2nnc(NC(=O)c3cccc(-n4c(O)ccc4O)c3)o2)c1` [SMR000811880]: greater than 150 µM; for `O=C1C2C(=NC(=S)NC2c2ccc(Cl)cc2)NC(c2ccc(Cl)cc2)N1c1ccc(Cl)cc1` (stereo not drawn) [SMR000155440]: greater than 150 µM; for `CCC1C(c2ccccc2)NC(c2ccccc2)C(CC)C1N=O` (stereo not drawn) [SMR000283074]: 13.3 µM.
Compound `COc1ccc(CN=Nc2nc(Nc3ccccc3)nc(N3CCCCC3)n2)cc1OC` [N2-[(3,4-dimethoxyphenyl)methylideneamino]-N4-phenyl-6-piperidin-1-yl-1,3,5-triazine-2,4-diamine] showed a half-maximal effective concentration (EC50) greater than 150 µM.
Regarding `Oc1cc(N(CCc2ccccc2)C(=S)Nc2ccccc2)c(O)n1-c1ccc(Br)cc1` [1-[1-(4-bromophenyl)-2,5-bis(oxidanylidene)pyrrolidin-3-yl]-3-phenyl-1-(2-phenylethyl)thiourea], it took 2.67 µM to reach a half-maximal effect (EC50). This lies in the single-digit micromolar range.
The compound `Oc1ccc2ccccc2c1CN=Nc1nnc(-c2ncc[nH]2)c2ccccc12` [SMR000151639] displayed an EC50 of 5.52 µM.
`O=C1C(Br)=CC([N+](=O)[O-])=C/C1=C\NNC(=O)C12CC3CCC(CC(C3)C1)C2` [SMR000414723] gave an EC50 greater than 150 µM.
As for `O=C(N/N=C/C1C=C(Cl)C=C([N+](=O)[O-])C1=O)c1ccccc1NS(=O)(=O)c1cccs1` (stereo not drawn) [SMR000364876], the EC50 is greater than 150 µM.
As for `S=C1N=C(C23CC4CC(CC(C4)C2)C3)CC(c2ccc3c(c2)OCO3)N1` (stereo not drawn), the EC50 was determined as 22.5 µM.
As to `Cc1nn(-c2ccccc2)c(Cl)c1C1C2=C(CCCC2=O)OC(=N)C1C#N` (stereo not drawn) [2-azanyl-4-(5-chloranyl-3-methyl-1-phenyl-pyrazol-4-yl)-5-oxidanylidene-4,6,7,8-tetrahydrochromene-3-carbonitrile], the EC50 is greater than 150 µM.
`CC(C)COC(=O)c1cccc2c1-c1ccccc1C2N=O` (stereo not drawn) [isobutyl 9-(hydroxyimino)-9H-fluorene-4-carboxylate] had an EC50 of 50 µM.
For `Cn1cnnc1SCc1ccc(C(=O)N/N=C2\C(=O)N(Cc3ccc(Cl)cc3)c3ccccc32)cc1` [N-[(Z)-[1-[(4-chlorophenyl)methyl]-2-oxidanylidene-indol-3-ylidene]amino]-4-[(4-methyl-1,2,4-triazol-3-yl)sulfanylmethyl]benzamide], it took 18 µM to reach a half-maximal effect (EC50). This EC50 lies about 2.8-fold lower than the previous one.
As to `COc1cc(CN=Nc2ncnc3sc4c(c23)CCC4)ccc1O` [SMR000242188], the EC50 came to 5.06 µM.
The same measure for `Cc1ccc(C(=O)C2C(=O)C(=O)N(Cc3ccco3)C2c2cccc(Br)c2)o1` (stereo not drawn) [2-(3-bromophenyl)-1-(2-furanylmethyl)-4-hydroxy-3-[(5-methyl-2-furanyl)-oxomethyl]-2H-pyrrol-5-one]: greater than 150 µM; for `O=C1N=C(Nc2ccccc2)SC1=Cc1c[nH]c2ccccc12` [MLS000766635]: greater than 150 µM; for `Cc1ccccc1CN=Nc1nc2ccccc2[nH]1` [SMR000305031]: greater than 150 µM.
Turning to `CNC(=O)c1c(NC(=O)c2ccc(-n3c(O)ccc3O)cc2)sc2c1CCC(C)C2` (stereo not drawn) [SMR000806319], the EC50 was greater than 150 µM.
As for `O=[N+]([O-])c1cc(Br)c(O)c(CN=Nc2nnnn2-c2cccc3ccccc23)c1` [(6E)-2-bromo-6-[[2-(1-naphthalen-1-yltetrazol-5-yl)hydrazinyl]methylidene]-4-nitrocyclohexa-2,4-dien-1-one], the EC50 is greater than 150 µM.
The compound `O=C(CC1=NC2(CCCC2)Cc2ccccc21)C(=O)NN=Cc1ccccc1O` [SMR000219463] gave an EC50 greater than 150 µM.
As to `CCCCN1C(=O)/C(=N\NC(=O)c2ccccc2NS(=O)(=O)c2cccs2)c2ccccc21` [N-[(Z)-(1-butyl-2-oxoindol-3-ylidene)amino]-2-(thiophen-2-ylsulfonylamino)benzamide], the EC50 is greater than 150 µM.
In the case of `Cc1ccc(NNC2=CS(=O)(=O)N(C)c3ccsc32)cc1` [4-methyl-N-[(1-methyl-2,2-dioxo-4-thieno[3,2-c]thiazinylidene)amino]aniline], the midpoint of the response, the EC50, lay at 4.04 µM.
